Results published in publication PMC11672400, “Synthesis, Spectroscopic Characterization, Structural Analysis, and Evaluation of Anti-Tumor, Antimicrobial, and Antibiofilm Activities of Halogenoaminopyrazoles Derivatives” (Antibiotics, 2024).
≈ marks a conversion by molar mass, not a printed value. Where two headings read alike, the source gives them in different places.

Assays:
[1] = MTT cell viability / cytotoxicity on normal fibroblasts; type: cell-based, mouse; conditions: mouse
Source text: Merck chemicals were utilized.
Untreated cells were used as control, considered 100% viable cells.

[2] = system: Enterococcus faecalis ATCC29212; test: Qualitative evaluation of antimicrobial activity (inhibition zone, spot on agar); type: cell-based; design: key: (+) inhibited bacterial growth; (-) did not inhibit bacterial growth; conditions: 0.06 g/2 mL DMSO, 5 µL spot
Experimental: (§1) For testing the antimicrobial/antibiofilm activity, the concentration of the studied compounds was identical to 0.06 g/2 mL DMSO. 0.5 Standard McFarland suspension was used, which was inoculated onto Mueller Hinton agar plates, (Remel, Lenexa, KS, USA), 5 µL of each compound was spotted and incubated overnight at 37 °C. Antimicrobial activity was observed as zones of inhibition formed around the spot.

[3] = system: Escherichia coli ATCC25922; test: as above; type: cell-based; design: key: (+) inhibited bacterial growth; (-) did not inhibit bacterial growth; conditions: 0.06 g/2 mL DMSO, 5 µL spot
Experimental: as §1

[4] = system: Pseudomonas aeruginosa ATCC27853; test: as above; type: cell-based; design: key: (+) inhibited bacterial growth; (-) did not inhibit bacterial growth; conditions: 0.06 g/2 mL DMSO, 5 µL spot
Experimental: as §1

[5] = system: Staphylococcus aureus ATCC25923; test: as above; type: cell-based; design: key: (+) inhibited bacterial growth; (-) did not inhibit bacterial growth; conditions: 0.06 g/2 mL DMSO, 5 µL spot
Experimental: as §1

[6] = system: Enterococcus faecalis ATCC29212; test: MIC by serial microdilution in liquid medium; type: cell-based; conditions: 24 h, 37 °C; for MIC: Enterococcus faecalis, ATCC29212, read-out: Minimum inhibitory concentration, Enterococcus faecalis ATCC29212
Experimental: (§2) The minimum inhibitory concentrations (MIC) were determined by the serial microdilution method in a liquid medium (Tryptone Soy Broth), on 96-well plates. Serial binary dilutions of the compound stock solution (10 mg/mL in DMSO) were carried out in 90 µL of culture medium and 10 µL of 10^6 CFU/mL (Colony Forming Units) microbial suspension. Each test included a positive control (wells with culture medium and microbial suspension) and a negative control for medium sterility. After incubation at 37 °C for 24 h the plates were visually examined, and optical density was measured at 620 nm. […] The MIC value (µg/mL) for the chemical compound was determined by the concentration in the final well without bacterial growth. All experiments were performed in triplicate.

[7] = system: Escherichia coli ATCC25922; test: MIC by serial microdilution in liquid medium; type: cell-based; conditions: 24 h, 37 °C; for MIC: Escherichia coli, ATCC25922, read-out: Minimum inhibitory concentration, Escherichia coli ATCC25922
Experimental: as §2

[8] = system: Pseudomonas aeruginosa ATCC27853; test: MIC by serial microdilution in liquid medium; type: cell-based; conditions: 24 h, 37 °C; for MIC: Pseudomonas aeruginosa, ATCC27853, read-out: Minimum inhibitory concentration, Pseudomonas aeruginosa ATCC27853
Experimental: as §2

[9] = system: Staphylococcus aureus ATCC25923; test: MIC by serial microdilution in liquid medium; type: cell-based; conditions: 24 h, 37 °C; for MIC: Staphylococcus aureus, ATCC25923, read-out: Minimum inhibitory concentration, Staphylococcus aureus ATCC25923
Experimental: as §2

[10] = system: Enterococcus faecalis ATCC29212; test: Antibiofilm assay (crystal violet), MBIC; type: cell-based; conditions: 37 °C; for minimal effective concentration: Enterococcus faecalis, ATCC29212, 24 h, read-out: Minimum biofilm inhibition concentration (MBIC), Enterococcus faecalis ATCC29212
Experimental: (§3) Microorganisms were grown in 96-well plates filled with nutrient broth along with test substances, followed by incubation at 37 °C for 24 h. Plates were cleaned and rinsed thrice using SPW solution (sterile physiological water). After that, the attached cells were treated with 110 μL of methanol for 5 min, and then the methanol was removed by turning it upside down. […] Once stained, the solution was removed, and the plates were washed with running tap water. […] The antimicrobial/antibiofilm activity of the compounds was evaluated against two antibiotics, commercial formulations of metronidazole and nitrofurantoin.

[11] = system: Escherichia coli ATCC25922; test: Antibiofilm assay (crystal violet), MBIC; type: cell-based; conditions: 37 °C; for minimal effective concentration: Escherichia coli, ATCC25922, 24 h, read-out: Minimum biofilm inhibition concentration (MBIC), Escherichia coli ATCC25922
Experimental: as §3

[12] = system: Pseudomonas aeruginosa ATCC27853; test: Antibiofilm assay (crystal violet), MBIC; type: cell-based; conditions: 37 °C; for Minimum biofilm inhibition concentration (MBIC), Pseudomonas aeruginosa ATCC27853: 24 h; for minimal effective concentration: Pseudomonas aeruginosa, ATCC27853, 24 h, read-out: Minimum biofilm inhibition concentration (MBIC), Pseudomonas aeruginosa ATCC27853
Experimental: as §3

[13] = system: Staphylococcus aureus ATCC25923; test: Antibiofilm assay (crystal violet), MBIC; type: cell-based; conditions: Staphylococcus aureus, ATCC25923; 24 h, 37 °C; read-out: Minimum biofilm inhibition concentration (MBIC), Staphylococcus aureus ATCC25923
Experimental: as §3

[14] = system: HEp-2 epithelial tumor cells; test: MTT cell viability / anti-tumor activity; conditions: Homo sapiens, read-out: Cell viability on Hep2 cells (%)
Experimental: The cytotoxicity of the halogenoaminopyrazole derivatives 4a–f and 5a–e was tested on L929 mouse fibroblast cells, and their anti-tumor activity was evaluated on the human carcinoma epithelial cell line HEp-2. The experiments were performed in a concentration range of 3.1–50 μg/mL.
The MTT test was used, 3-(4,5-dimethylthiazol-2-yl)-2,5-diphenyl tetrazolium bromide), which is reduced to insoluble purple-blue formazan crystals precipitated by living cells. Cell viability assessed using the MTT assay reflects the activity of mitochondrial enzymes in treated cells compared to the control culture of untreated cells.
To assess the biocompatibility of the substances, a stable mouse fibroblast cell line, NCTC (clone 929), was grown in minimal essential medium (MEM) with 10% fetal bovine serum (FBS) and 2 mM L-glutamine, along with 100 U/mL penicillin, 100 µg/mL streptomycin, and 500 µg/mL neomycin. The concentration of the compounds used was 0.06 g/2 mL DMSO.
In cytotoxicity experiments, compound solutions were utilized at concentrations of 3.1 μg/mL, 6.25 μg/mL, 12.5 μg/mL, 25 μg/mL, and 50 μg/mL. The NCTC cell suspension was placed into 96-well culture plates with a concentration of 4 × 10^4 cells/mL and incubated at 37 °C for 24 h in a 5% CO2 humidified atmosphere. The compounds under study were placed in sets of three at varying concentrations ranging from 3.1 μg/mL to 50 μg/mL in every well, and the plates were then kept under standard conditions for 48 h. Cell viability was determined through the utilization of the MTT assay. Next, the MTT solution was removed, then isopropanol was added to solubilize the formazan crystals. The colored solution was then measured for absorbance at 570 nm using a Berthold Technologies, LB 940 microplate reader (Bad Wildbad, Germany). The outcomes were determined based on Formula (1) while considering that the recorded optical density is directly related to the number of viable cells in the cell culture being examined [35, 36]. % cell viability = (OD sample/OD control) × 100%(1)
For each tested compound, a graph representing percentage cell viability versus concentrations (in the range 3.1–50 µg/mL) was obtained. Then, the IC50 value was calculated by using ED50 plus V1.0 software.

[15] = NCTC clone 929 (L929) mouse fibroblast cells
[16] = read-out: Cell viability on NCTC cells (%)

Question: Which results are given for `Cc1nn(CNc2ccc(I)cc2)c(C)c1[N+](=O)[O-]` [4d, N-[(3,5-dimetyl-4-nitro-1H-pyrazol-1-yl)-methyl]-4-iodoaniline]?
Answer: viability at 24 h, 3.1 µg/mL [1, 15]: 99.9 ± 2.31%; viability at 48 h, 3.1 µg/mL [1, 15]: 95.69 ± 0.8%; viability at 24 h, 6.25 µg/mL [1, 15]: 101 ± 2.24%; viability at 48 h, 6.25 µg/mL [1, 15]: 96.26 ± 0.78%; viability at 24 h, 12.5 µg/mL [1, 15]: 103 ± 3.44%; viability at 48 h, 12.5 µg/mL [1, 15]: 92.6 ± 1.4%; viability at 24 h, 25 µg/mL [1, 15]: 102 ± 1.07%; viability at 48 h, 25 µg/mL [1, 15]: 91.5 ± 1.41%; viability at 24 h, 50 µg/mL [1, 15]: 101 ± 2.55%; viability at 48 h, 50 µg/mL [1, 15]: 88.2 ± 2.1%; Qualitative antimicrobial activity, Enterococcus faecalis ATCC29212 [2]: -; Qualitative antimicrobial activity, Escherichia coli ATCC25922 [3]: -; Qualitative antimicrobial activity, Pseudomonas aeruginosa ATCC27853 [4]: -; Qualitative antimicrobial activity, Staphylococcus aureus ATCC25923 [5]: -; MIC [6]: 930 ± 0.53 µg/mL (≈ 2.5 mM); MIC [7]: 930 ± 0.1 µg/mL (≈ 2.5 mM); MIC [8]: 930 ± 0.02 µg/mL (≈ 2.5 mM); MIC [9]: 930 ± 0.55 µg/mL (≈ 2.5 mM); minimal effective concentration [10]: 930 ± 0.53 µg/mL; minimal effective concentration [11]: 930 ± 0.18 µg/mL; Minimum biofilm inhibition concentration (MBIC), Pseudomonas aeruginosa ATCC27853 [12]: 460 ± 0.05 µg/mL; minimal effective concentration [12]: 460 µg/mL; minimal effective concentration [13]: 930 ± 0.03 µg/mL; melting point: 91 to 92 °C; viability at 3.1 µg/mL ([14]; HEp-2, 24 h): 105 ± 1.93%; viability at 6.25 µg/mL ([14]; HEp-2, 24 h): 110 ± 2.64%; viability at 12.5 µg/mL ([14]; HEp-2, 24 h): 113 ± 3.48%; viability at 25 µg/mL ([14]; HEp-2, 24 h): 109 ± 2.75%; viability at 50 µg/mL ([14]; HEp-2, 24 h): 106 ± 1.63%; viability at 3.1 µg/mL ([14]; HEp-2, 48 h): 101 ± 3.72%; viability at 6.25 µg/mL ([14]; HEp-2, 48 h): 110 ± 3.49%; viability at 12.5 µg/mL ([14]; HEp-2, 48 h): 111 ± 2.8%; viability at 25 µg/mL ([14]; HEp-2, 48 h): 101.6 ± 0.56%; viability at 50 µg/mL ([14]; HEp-2, 48 h): 69 ± 0.81%

Question: Which viability at 24 h, 3.1 µg/mL [1, 16] does the source give for `Cc1nn(CN(Cn2nc(C)c([N+](=O)[O-])c2C)c2ccc(Br)cc2)c(C)c1[N+](=O)[O-]` [5c, N,N-bis-[(3,5-dimetyl-4-nitro-1H-pyrazol-1-yl)-methyl]-4-bromoaniline] here?
Answer: 105 ± 1.96%

Question: And the viability at 48 h, 3.1 µg/mL [1, 16]?
Answer: 96.7 ± 2.96%

Question: What about the viability at 24 h, 6.25 µg/mL [1, 16] of the same molecule?
Answer: 106 ± 2.3%

Question: And the viability at 48 h, 6.25 µg/mL [1, 16]?
Answer: 101 ± 3.63%

Question: And the viability at 24 h, 12.5 µg/mL [1, 16]?
Answer: 106 ± 3.74%

Question: And the viability at 48 h, 12.5 µg/mL [1, 16]?
Answer: 97.4 ± 1.99%

Question: And the viability at 24 h, 25 µg/mL [1, 16]?
Answer: 105 ± 1.88%

Question: And the viability at 48 h, 25 µg/mL [1, 16]?
Answer: 96.6 ± 2.02%

Question: And the viability at 24 h, 50 µg/mL [1, 16]?
Answer: 84 ± 2.12%

Question: What about the viability at 48 h, 50 µg/mL [1, 16] of the same molecule?
Answer: 68 ± 1.61%

Question: What about the “Qualitative antimicrobial activity, Enterococcus faecalis ATCC29212” value [2] of the same molecule?
Answer: -

Question: What about the “Qualitative antimicrobial activity, Escherichia coli ATCC25922” value [3] of the same molecule?
Answer: -

Question: And the “Qualitative antimicrobial activity, Pseudomonas aeruginosa ATCC27853” value [4]?
Answer: -

Question: What about the “Qualitative antimicrobial activity, Staphylococcus aureus ATCC25923” value [5] of the same molecule?
Answer: -

Question: What about the “Minimum inhibitory concentration, Enterococcus faecalis ATCC29212” value [6] of the same molecule?
Answer: 3750 ± 0.08 µg/mL (≈ 7.84 mM)

Question: And the MIC [6]?
Answer: 3750 µg/mL (≈ 7.84 mM)

Question: And the “Minimum inhibitory concentration, Escherichia coli ATCC25922” value [7]?
Answer: 3750 ± 0.54 µg/mL (≈ 7.84 mM)

Question: And the MIC [7]?
Answer: 3750 µg/mL (≈ 7.84 mM)

Question: What about the “Minimum inhibitory concentration, Pseudomonas aeruginosa ATCC27853” value [8] of the same molecule?
Answer: 3750 ± 0.51 µg/mL (≈ 7.84 mM)

Question: And the MIC [8]?
Answer: 3750 µg/mL (≈ 7.84 mM)

Question: And the “Minimum inhibitory concentration, Staphylococcus aureus ATCC25923” value [9]?
Answer: 3750 ± 0.04 µg/mL (≈ 7.84 mM)

Question: And the MIC [9]?
Answer: 3750 µg/mL (≈ 7.84 mM)

Question: What about the “Minimum biofilm inhibition concentration (MBIC), Enterococcus faecalis ATCC29212” value ([10]; 24 h) of the same molecule?
Answer: 1870 ± 0.06 µg/mL

Question: What about the minimal effective concentration [10] of the same molecule?
Answer: 1870 µg/mL

Question: What about the “Minimum biofilm inhibition concentration (MBIC), Escherichia coli ATCC25922” value ([11]; 24 h) of the same molecule?
Answer: 3750 ± 0.48 µg/mL

Question: What about the minimal effective concentration [11] of the same molecule?
Answer: 3750 µg/mL

Question: And the “Minimum biofilm inhibition concentration (MBIC), Pseudomonas aeruginosa ATCC27853” value [12]?
Answer: 1870 ± 0.53 µg/mL

Question: What about the minimal effective concentration [12] of the same molecule?
Answer: 1870 µg/mL

Question: And the minimal effective concentration [13]?
Answer: 1870 ± 0.15 µg/mL

Question: And the melting point?
Answer: 133 to 135 °C

Question: What about the viability at 3.1 µg/mL ([14]; HEp-2, 24 h) of the same molecule?
Answer: 112 ± 2.32%

Question: And the viability at 6.25 µg/mL ([14]; HEp-2, 24 h)?
Answer: 114 ± 2.18%

Question: What about the viability at 12.5 µg/mL ([14]; HEp-2, 24 h) of the same molecule?
Answer: 117 ± 2.83%

Question: And the viability at 25 µg/mL ([14]; HEp-2, 24 h)?
Answer: 113 ± 1.52%

Question: And the viability at 50 µg/mL ([14]; HEp-2, 24 h)?
Answer: 102 ± 2.71%

Question: What about the viability at 3.1 µg/mL ([14]; HEp-2, 48 h) of the same molecule?
Answer: 96.9 ± 1.38%

Question: And the viability at 6.25 µg/mL ([14]; HEp-2, 48 h)?
Answer: 96.5 ± 1.58%

Question: What about the viability at 12.5 µg/mL ([14]; HEp-2, 48 h) of the same molecule?
Answer: 89.2 ± 2.02%

Question: And the viability at 25 µg/mL ([14]; HEp-2, 48 h)?
Answer: 65.3 ± 2.09%

Question: What about the viability at 50 µg/mL ([14]; HEp-2, 48 h) of the same molecule?
Answer: 50.2 ± 2.02%
